Reference: patent US20240246941A1, “SUBSTITUTED 4-(3-AMINOPROP-1-YL)AMINOQUINOLINE ANALOGS AS MODULATORS OF MELANOMA-ASSOCIATED ANTIGEN 11 UBIQUITIN LIGASE” (ST. JUDE CHILDREN'S RESEARCH HOSPITAL, INC., priority 2020, published 2024)

molecular target: MAGE-A11:PCF11 (Homo sapiens (Human), UniProt P43364); experiment: TR-FRET single point screening at 15 μM; type: binding; parameters: unit not given here; conditions: single point TR-FRET screening at 15 μM against MAGE-A11:PCF11
How it was run: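 Single-point screen at 15 μM (0.25% DMSO) measuring disruption of GST-MAGEA11 (5 nM) binding to FAM-PCF11_4 peptide (200 nM) detected by Tb-anti-GST (5 nM). Buffer 50 mM Tris pH 7.5, 20 mM MgCl2, 0.1 mg/ml BSA, 1 mM DTT; 90 min at ~25 °C; 520/490 nm ratio converted to % inhibition versus controls.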

MAGE-A11:PCF11, sequence (P43364 218-429): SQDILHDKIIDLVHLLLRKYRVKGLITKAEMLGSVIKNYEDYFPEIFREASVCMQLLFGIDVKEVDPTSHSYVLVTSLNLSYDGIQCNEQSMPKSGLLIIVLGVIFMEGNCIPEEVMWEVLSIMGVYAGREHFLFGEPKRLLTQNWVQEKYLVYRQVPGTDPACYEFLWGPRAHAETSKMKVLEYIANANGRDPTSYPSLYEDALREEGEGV

Compound	TR-FRET signal
O=S(=O)(c1ccccc1)c1cnc2ccc(F)cc2c1N1CCN(Cc2ccccc2)CC1 [SJ000247257]	−62.28
Cc1ccc(S(=O)(=O)c2cnc3ccccc3c2N2CCN(C)CC2)cc1 [SJ000247268]	−13.59
CCOc1ccc2ncc(C(=O)c3ccc(OC)cc3)c(N3CCN(C)CC3)c2c1 [SJ000247277]	−18.95
CCc1ccc2ncc(C(=O)c3ccccc3)c(N3CCN(CC)CC3)c2c1 [SJ000247281]	−2.261
CCN1CCN(c2c(C(=O)c3ccc(C)cc3)cnc3ccc(OC)cc23)CC1 [SJ000247282]	3.9
CCOc1ccc2ncc(C(=O)c3ccccc3)c(N3CCN(CC)CC3)c2c1 [SJ000247283]	−0.2733
CCOc1ccc2ncc(C(=O)c3ccc(C)cc3)c(N3CCN(CC)CC3)c2c1 [SJ000247284]	−14.25
CN1CCN(c2c(S(=O)(=O)c3ccc(Cl)cc3)cnc3ccccc23)CC1 [SJ000247306]	−10.14
CCc1ccc2ncc(S(=O)(=O)c3ccc(C)c(C)c3)c(N3CCN(C)CC3)c2c1 [SJ000247332]	2.973
COc1ccc2ncc(S(=O)(=O)c3ccc(C)c(C)c3)c(N3CCN(C)CC3)c2c1 [SJ000247333]	−8.554
CCc1ccc2ncc(S(=O)(=O)c3ccc(C)c(C)c3)c(N3CCN(CC)CC3)c2c1 [SJ000247334]	−4.712
CCN1CCN(c2c(S(=O)(=O)c3ccc(C)c(C)c3)cnc3ccc(OC)cc23)CC1 [SJ000247335]	−4.579
CN1CCN(c2c(C(=O)c3ccccc3)cnc3ccc(Cl)cc23)CC1 [SJ000247338]	−5.573
CCOc1ccc(C(=O)c2cnc3ccc(C)cc3c2N2CCN(CC)CC2)cc1 [SJ000247339]	−10.81
Cc1ccc(S(=O)(=O)c2cnc3ccc(F)cc3c2N2CCN(C)CC2)cc1C [SJ000247344]	−7.627
CCN1CCN(c2c(S(=O)(=O)c3ccc(C)c(C)c3)cnc3ccc(F)cc23)CC1 [SJ000247345]	1.118
CCOc1ccc2ncc(S(=O)(=O)c3ccc(C)c(C)c3)c(N3CCN(C)CC3)c2c1 [SJ000247354]	−14.05
CCOc1ccc2ncc(S(=O)(=O)c3ccc(C)c(C)c3)c(N3CCN(CC)CC3)c2c1 [SJ000247355]	−13.39
CCN1CCN(c2c(C(=O)c3ccccc3)cnc3ccc(OC)cc23)CC1 [SJ000247365]	−0.2733
CCN1CCN(c2c(S(=O)(=O)c3ccc(Cl)cc3)cnc3ccccc23)CC1 [SJ000247367]	−2.261
CCc1ccc(S(=O)(=O)c2cnc3ccccc3c2N2CCN(C)CC2)cc1 [SJ000278939]	11.58
CCOC(=O)c1cnc2ccc(OC)cc2c1N1CCN(C)CC1 [SJ000279507]	−2.791
CCOC(=O)c1cnc2ccc(OCC)cc2c1N1CCN(C)CC1 [SJ000279526]	−7.064
CCOC(=O)c1cnc2c(CC)cccc2c1NCCN1CCOCC1 [SJ000279714]	−6.103
CCOC(=O)c1cnc2ccc(C(=O)O)cc2c1N1CCN(CCO)CC1 [SJ000280902]	−0.5958
CCOC(=O)c1cnc2c(C(F)(F)F)cccc2c1NCCN1CCOCC1 [SJ000281260]	0.8341
CCN(CC)CCCC(C)Nc1ccnc2cc(Cl)ccc12 (stereo not drawn) [SJ000285185]	−2.592
CCN(CC)CCCC(C)Nc1c2ccc(Cl)cc2nc2ccc(OC)cc12 (stereo not drawn) [SJ000285202]	−265.7

same assay, conditions: single point TR-FRET screening of quinoline compounds against MAGE-A11:PCF11; 15 μM

Compound	TR-FRET signal
CCOC(=O)c1cnc2c(Cl)cccc2c1NCCCN1CCOCC1 [SJ000279431]	4.102
CCOC(=O)c1cnc2ccc(OCC)cc2c1NCCCN1CCOCC1.Cl [SJ000279525]	5.532
CCOC(=O)c1cnc2c(C)cccc2c1NCCCN1CCOCC1 [SJ000279636]	3.353
CCOC(=O)c1cnc2ccc(C(=O)OC)cc2c1NCCCN1CCOCC1 [SJ000279665]	10.71
CCOC(=O)c1cnc2ccc(F)cc2c1NCCCN1CCOCC1 [SJ000279864]	−0.3915
